Experimental data from patent EP4603105A1, “PHARMACEUTICAL COMPOSITION CONTAINING CYCLIC COMPOUND HAVING SELECTIVE KRAS INHIBITORY EFFECT AGAINST HRAS AND NRAS” (CHUGAI SEIYAKU KABUSHIKI KAISHA, priority 2022, dated 2024).

What was measured:
[1] = tested on: human lung cancer strain NCI-H441; assay: NCI-H441 cell proliferation inhibitory activity (CellTiter-Glo, 4 days); format: cell-based; conditions: 50% proliferation inhibitory concentration, four days, read-out: NCl-H441 IC50
In short: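 Proliferation was scored by […] measured after the reagent was added to cultures kept at 37°C in 5% carbon dioxide.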

[2] = molecular target: GDP-bound NRAS wild-type protein (Homo sapiens, UniProt P01111); assay: Binding to NRAS by surface plasmon resonance (SPR), KD and KD ratio to KRAS; conditions: ratio of KD with respect to GDP-bound NRAS wild-type protein to KD with respect to KRAS
GDP-bound NRAS wild-type protein, sequence (P01111 whole entry): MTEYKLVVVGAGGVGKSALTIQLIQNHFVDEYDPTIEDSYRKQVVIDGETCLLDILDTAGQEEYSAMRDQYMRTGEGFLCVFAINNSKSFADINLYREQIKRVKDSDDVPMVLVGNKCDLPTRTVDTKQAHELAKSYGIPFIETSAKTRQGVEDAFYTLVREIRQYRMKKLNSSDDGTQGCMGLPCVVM
In short: (§1)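 SPR, 30°C: Avi-biotin RAS·GDP captured via Biotin CAPture (~100–300 RU); running buffer HBS pH 7.4, 1 mM DTT, 10 mM MgCl2, 0.01% Tween 20, 10 µM GDP, 4% DMSO. Single-cycle kinetics, 100 µL/min, 75 s injections; 1:1 model → KD.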

[3] = molecular target: HRAS wild-type protein (Homo sapiens, UniProt P01112); assay: Binding to HRAS by surface plasmon resonance (SPR), KD and KD ratio to KRAS; conditions: ratio of KD with respect to HRAS wild-type protein to KD with respect to KRAS
HRAS wild-type protein, sequence (P01112 whole entry): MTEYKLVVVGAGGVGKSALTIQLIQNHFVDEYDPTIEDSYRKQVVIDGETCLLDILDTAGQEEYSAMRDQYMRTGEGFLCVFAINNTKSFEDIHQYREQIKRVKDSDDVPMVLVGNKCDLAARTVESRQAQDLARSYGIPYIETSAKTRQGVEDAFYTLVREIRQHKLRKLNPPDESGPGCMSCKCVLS
In short: as §1

[4] = molecular target: GDP-bound KRAS wild-type protein (Homo sapiens, UniProt P01116); assay: Binding to KRAS by surface plasmon resonance (SPR), dissociation constant KD; conditions: Single Cycle Kinetics, 1:1 binding model
GDP-bound KRAS wild-type protein, sequence (P01116 1-188 isoform P01116-2): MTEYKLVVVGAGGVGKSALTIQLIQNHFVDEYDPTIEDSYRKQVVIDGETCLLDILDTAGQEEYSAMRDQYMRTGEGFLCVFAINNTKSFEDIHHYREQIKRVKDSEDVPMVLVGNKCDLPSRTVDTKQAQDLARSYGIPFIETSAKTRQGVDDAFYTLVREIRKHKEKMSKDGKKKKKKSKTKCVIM
In short: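 Recombinant RAS proteins bearing a biotinylated Avi tag and loaded with GDP served as the captured ligand, recaptured fresh every cycle. Binding responses were referenced to an uncoated surface and a buffer-only blank cycle. Dissociation constants were obtained by 1:1 model fitting at 30°C.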

| Structure (SMILES) | IC50 [1] | NRAS /KRAS [2] | HRAS /KRAS [3] | Kd [4] |
| --- | --- | --- | --- | --- |
| CCO[C@@H]1C[C@H]2C(=O)NC3(CCC3)C(=O)N(C)[C@@H](C3CCCC3)C(=O)N(C)[C@H](C(=O)N(C)C)CC(=O)N(C)[C@@H](CC3CCCC3)C(=O)N[C@@H]([C@@H](C)CC)C(=O)N(C)CC(=O)N(C)[C@H]3C/C=C\CCN(C3=O)[C@@H](CC3CCC(F)(F)CC3)C(=O)N(C)CC(=O)N[C@@H](CCc3cc(F)c(C(F)(F)F)c(F)c3)C(=O)N2C1 [PP1458] | 18.2 nM | A (a compound having 10 or more and less than 20 is denoted as A) | A (a compound having 10 or more and less than 20 is denoted as A) | 0.15 nM |
| CCO[C@@H]1C[C@H]2C(=O)NC3(CCCC3)C(=O)N(C)[C@@H](C3CCCC3)C(=O)N(C)[C@H](C(=O)N(C)C)CC(=O)N(C)[C@@H](CC(C)C)C(=O)N[C@@H]([C@@H](C)CC)C(=O)N(C)CC(=O)N(C)[C@H]3C/C=C\CCN(C3=O)[C@@H](CC3CCC(F)(F)CC3)C(=O)N(C)CC(=O)N[C@@H](CCc3cc(F)c(C(F)(F)F)c(F)c3)C(=O)N2C1 [PP1459] | 38.6 nM | A (a compound having 10 or more and less than 20 is denoted as A) | A (a compound having 10 or more and less than 20 is denoted as A) | 0.2 nM |
| CCO[C@@H]1C[C@H]2C(=O)NC3(CCC3)C(=O)N(C)[C@@H](C3CCCC3)C(=O)N(C)[C@H](C(=O)N(C)C)CC(=O)N(C)[C@@H](CC(C)(C)C)C(=O)N[C@@H]([C@@H](C)CC)C(=O)N(C)CC(=O)N(C)[C@H]3C/C=C\CCN(C3=O)[C@@H](CC3CCC(F)(F)CC3)C(=O)N(C)CC(=O)N[C@@H](CCc3cc(F)c(C(F)(F)F)c(F)c3)C(=O)N2C1 [PP1460] | 32.9 nM | A (a compound having 10 or more and less than 20 is denoted as A) | A (a compound having 10 or more and less than 20 is denoted as A) | 0.23 nM |
| CC[C@H](C)[C@@H]1NC(=O)[C@H](CC)N(C)C(=O)C[C@@H](C(=O)N(C)C)N(C)C(=O)[C@H](C2CCCC2)N(C)C(=O)C2(CCC2)NC(=O)[C@@H]2CCCN2C(=O)[C@H](CCc2cc(F)c(C(F)(F)F)c(F)c2)NC(=O)CN(C)C(=O)[C@H](CC2CCC(F)(F)CC2)N2CC/C=C\C[C@@H](C2=O)N(C)C(=O)CN(C)C1=O [PP1461] | 121 nM | A (a compound having 10 or more and less than 20 is denoted as A) | A (a compound having 10 or more and less than 20 is denoted as A) | 0.27 nM |
| CC[C@H](C)[C@@H]1NC(=O)[C@H](CC)N(C)C(=O)C[C@@H](C(=O)N(C)C)N(C)C(=O)[C@H](C2CCCC2)N(C)C(=O)C2(CCC2)NC(=O)[C@@H]2CC(F)(F)CN2C(=O)[C@H](CCc2cc(F)c(C(F)(F)F)c(F)c2)NC(=O)CN(C)C(=O)[C@H](CC2CCCCC2)N2CC/C=C\C[C@@H](C2=O)N(C)C(=O)CN(C)C1=O [PP1462] | 27.5 nM | A (a compound having 10 or more and less than 20 is denoted as A) | A (a compound having 10 or more and less than 20 is denoted as A) | 0.12 nM |
| CCO[C@@H]1C[C@H]2C(=O)NC3(CCC3)C(=O)N(C)[C@@H](C3CCCC3)C(=O)N(C)[C@H](C(=O)N(C)C)CC(=O)N(C)[C@@H](CSC)C(=O)N[C@@H]([C@@H](C)CC)C(=O)N(C)CC(=O)N(C)[C@H]3C/C=C\CCN(C3=O)[C@@H](CC3CCCCC3)C(=O)N(C)CC(=O)N[C@@H](CCc3cc(F)c(C(F)(F)F)c(F)c3)C(=O)N2C1 [PP1463] | 44.5 nM | A (a compound having 10 or more and less than 20 is denoted as A) | A (a compound having 10 or more and less than 20 is denoted as A) | 0.13 nM |
| CCC[C@H]1C(=O)N[C@@H]([C@@H](C)CC)C(=O)N(C)CC(=O)N(C)[C@H]2C/C=C\CCN(C2=O)[C@@H](CC2CCCCC2)C(=O)N(C)CC(=O)N[C@@H](CCc2cc(F)c(C(F)(F)F)c(F)c2)C(=O)N2C[C@H](OCC)C[C@H]2C(=O)NC2(CCC2)C(=O)N(C)[C@@H](C2CCCC2)C(=O)N(C)[C@H](C(=O)N(C)C)CC(=O)N1C [PP1464] | 32.3 nM | A (a compound having 10 or more and less than 20 is denoted as A) | A (a compound having 10 or more and less than 20 is denoted as A) | 0.15 nM |
| CC[C@H](C)[C@@H]1NC(=O)[C@H](CC)N(C)C(=O)C[C@@H](C(=O)N(C)C)N(C)C(=O)[C@H](C2CCCC2)N(C)C(=O)C2(CCC2)NC(=O)[C@@H]2C[C@@H](C(F)(F)F)CN2C(=O)[C@H](CCc2cc(F)c(C(F)(F)F)c(F)c2)NC(=O)CN(C)C(=O)[C@H](CC2CCCCC2)N2CC/C=C\C[C@@H](C2=O)N(C)C(=O)CN(C)C1=O [PP1465] | 34.1 nM | A (a compound having 10 or more and less than 20 is denoted as A) | A (a compound having 10 or more and less than 20 is denoted as A) | 0.36 nM |
| CCO[C@@H]1C[C@H]2C(=O)NC3(CCC3)C(=O)N(C)[C@@H](C3CCCC3)C(=O)N(C)[C@H](C(=O)N(C)C)CC(=O)N(C)[C@@H](CC(C)C)C(=O)N[C@@H]([C@@H](C)CC)C(=O)N(C)CC(=O)N(C)[C@H]3C/C=C\CCN(C3=O)[C@@H](CC3CCCCC3)C(=O)N(C)CC(=O)N[C@@H](CCc3cc(F)c(C(F)(F)F)c(F)c3)C(=O)N2C1 [PP1467] | 11.2 nM | A (a compound having 10 or more and less than 20 is denoted as A) | A (a compound having 10 or more and less than 20 is denoted as A) | 0.12 nM |
| CC[C@H](C)[C@@H]1NC(=O)[C@H](CC)N(C)C(=O)C[C@@H](C(=O)N(C)C)N(C)C(=O)[C@H](C2CCCC2)N(C)C(=O)C2(CCC2)NC(=O)[C@@H]2C[C@H](C)CN2C(=O)[C@H](CCc2cc(F)c(C(F)(F)F)c(F)c2)NC(=O)CN(C)C(=O)[C@H](CC2CCCCC2)N2CC/C=C\C[C@@H](C2=O)N(C)C(=O)CN(C)C1=O [PP1471] | 48.2 nM | A (a compound having 10 or more and less than 20 is denoted as A) | A (a compound having 10 or more and less than 20 is denoted as A) | 0.25 nM |
| CCO[C@@H]1C[C@H]2C(=O)NC3(CCCC3)C(=O)N(C)[C@@H](C3CCCC3)C(=O)N(C)[C@H](C(=O)N(C)C)CC(=O)N(C)[C@@H](CC(C)C)C(=O)N[C@@H]([C@@H](C)CC)C(=O)N(C)CC(=O)N(C)[C@H]3C/C=C\CCN(C3=O)[C@@H](CC3CCCCC3)C(=O)N(C)CC(=O)N[C@@H](CCc3cc(F)c(C(F)(F)F)c(F)c3)C(=O)N2C1 [PP1473] | 36.6 nM | A (a compound having 10 or more and less than 20 is denoted as A) | A (a compound having 10 or more and less than 20 is denoted as A) | 0.19 nM |
| CCO[C@@H]1C[C@H]2C(=O)NC3(CCC3)C(=O)N(C)[C@@H](C3CCCC3)C(=O)N(C)[C@H](C(=O)N(C)C)CC(=O)N(C)[C@@H](CC(C)(C)C)C(=O)N[C@@H]([C@@H](C)CC)C(=O)N(C)CC(=O)N(C)[C@H]3C/C=C\CCN(C3=O)[C@@H](CC3CCCCC3)C(=O)N(C)CC(=O)N[C@@H](CCc3cc(F)c(C(F)(F)F)c(F)c3)C(=O)N2C1 [PP1474] | 48.2 nM | A (a compound having 10 or more and less than 20 is denoted as A) | A (a compound having 10 or more and less than 20 is denoted as A) | 0.23 nM |
| CC[C@H](C)[C@@H]1NC(=O)[C@H](CC)N(C)C(=O)C[C@@H](C(=O)N(C)C)N(C)C(=O)[C@H](C2CCCC2)N(C)C(=O)C2(CCC2)NC(=O)[C@@H]2CCCN2C(=O)[C@H](CCc2cc(F)c(C(F)(F)F)c(F)c2)NC(=O)CN(C)C(=O)[C@H](CC2CCCCC2)N2CC/C=C\C[C@@H](C2=O)N(C)C(=O)CN(C)C1=O [PP1475] | 48.9 nM | A (a compound having 10 or more and less than 20 is denoted as A) | A (a compound having 10 or more and less than 20 is denoted as A) | 0.55 nM |
| CCO[C@@H]1C[C@H]2C(=O)NC3(CCC3)C(=O)N(C)[C@@H](C3CCCC3)C(=O)N(C)[C@H](C(=O)N(C)C)CC(=O)N(C)[C@@H](CC3CC3)C(=O)N[C@@H]([C@@H](C)CC)C(=O)N(C)CC(=O)N(C)[C@H]3C/C=C\CCN(C3=O)[C@@H](Cc3ccc(F)cc3C)C(=O)N(C)CC(=O)N[C@@H](CCc3ccc(Cl)c(Cl)c3)C(=O)N2C1 [PP1476] | 216 nM | A (a compound having 10 or more and less than 20 is denoted as A) | B (a compound having 3 or more and less than 10 is denoted as B) | 1 nM |
